In patent US8669267B2, “Pharmaceutical, food or beverage having inhibitory activity on serotonin transporter” (Suntory Holdings Limited, priority 2008, dated 2014):

Assays:
[1] = system: γ-crystallin; details: cited from earlier work
[2] = system: C57BL/6N mice with motivation decreased through open-space swimming; assay: Open-space swimming combined with Morris water maze test (escape-latency); assay type: in vivo
Protocol: The subjects were […] male C57BL/6N mice that had never been subjected to any experiment. At the beginning of the experiment, an average age of the subjects was about 12 weeks old, and an average weight of the subjects was 24.9 g (SD=3.30). The subjects were housed in an acrylic cage in an animal house in which the room temperature was 23° C. and the humidity was 50 to 60%. The inside of the animal house was set such that a light is alternately turned on and off in a 12-hour cycle (light period: from 8:00 AM to 8:00 PM). This experiment was carried out every day at the same time period during the light period. As feedstuff, a dry solid feed (Labo MR manufactured by Nosan Corporation) was fed. The supply of neither feedstuff nor water was limited.
The subjects were divided into 3 groups, and they were named noOS-Vehicle group (group of normal mice) (n=10), OS-(1S,3S)-MTCA-administered group (n=10), and OS-Vehicle group (group of mice having depression) (n=10), respectively.
A circular pool with an inner diameter of 95 cm and a depth of 35 cm was used. The pool was surrounded by white partitions each having a height of 120 cm and a width of 150 cm. […] The place where the escape platform was located was a central part of one of the four evenly-divided fan-shaped quadrants (Quadrant 1 to 4) of a circular water surface, and was determined for each subject. […]

[3] = target: T1, human serotonin transporter (Homo sapiens, UniProt P31645); assay: [3H] imipramine binding to cell homogenate of CHO cells expressing human serotonin transporter; details: 100 μg/mL (1S,3S)-MTCA sample; 2 nM [3H] imipramine; 22° C. for 60 minutes; control = 100
T1 construct: expressed in transfected cells; host or cells: CHO cells, vector pRc/CMV, calcium phosphate transfection
T1 sequence (P31645 whole entry): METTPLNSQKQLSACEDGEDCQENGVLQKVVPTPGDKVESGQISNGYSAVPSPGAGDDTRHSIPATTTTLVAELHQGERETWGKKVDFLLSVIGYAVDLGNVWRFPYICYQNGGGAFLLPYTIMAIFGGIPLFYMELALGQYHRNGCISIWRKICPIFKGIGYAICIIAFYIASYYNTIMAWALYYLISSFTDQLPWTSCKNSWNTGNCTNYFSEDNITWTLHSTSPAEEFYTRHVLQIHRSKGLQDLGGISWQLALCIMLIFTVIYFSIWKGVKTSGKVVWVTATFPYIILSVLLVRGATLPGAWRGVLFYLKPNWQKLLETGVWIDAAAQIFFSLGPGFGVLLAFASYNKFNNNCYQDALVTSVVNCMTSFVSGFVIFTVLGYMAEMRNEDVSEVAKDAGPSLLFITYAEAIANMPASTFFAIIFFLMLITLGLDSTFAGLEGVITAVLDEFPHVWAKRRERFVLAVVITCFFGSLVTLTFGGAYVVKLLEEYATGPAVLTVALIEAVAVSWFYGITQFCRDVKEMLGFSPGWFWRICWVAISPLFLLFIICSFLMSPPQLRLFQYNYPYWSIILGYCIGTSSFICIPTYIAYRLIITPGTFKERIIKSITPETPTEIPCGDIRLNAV
Protocol: A commercially-available (1S,3S)-2,3,4,9-tetrahydro-1-methyl-1H-pyrido[3,4-b]-indole-3-carboxylic acid reagent (manufactured by Wako Pure Chemical Industries, Ltd.) was used as a subject substance ((1S,3S)-MTCA), and the inhibitory effect of (1S,3S)-MTCA on serotonin transporters was determined using a method described in Masahiko T, et al: European Journal of Pharmacology 368 277-283, 1999.
CHO cells were transfected with a secretory vector pRc/CMV, in which cDNA of a human serotonin transporter was incorporated, by a calcium phosphate method. […]
Then, the medium was removed by aspiration to prepare a cell homogenate. […] The concentration of protein in the resulting cell homogenate was measured by a Lowry method using bovine serum albumin (BSA) as a standard.
Thereafter, 25 μL, of (1S,3S)-MTCA solution dissolved in physiological saline (100 μg/mL) and the solution 2 (225 μL) comprising 2 nM [^3H] imipramine were added to a 96-hole microplate, and the cell homogenate (amount of protein: 15 μg) obtained in (1) was added to the microplate, followed by incubation at 22° C. for 60 minutes. […] Non-specific binding of [^3H] imipramine to the cell homogenate was determined using 10 μM imipramine. […]

[4] = system: uptake of serotonin in the brain; details: cited from earlier work
[5] = target: T2, monoamine oxidase A (Homo sapiens, UniProt P21397); details: cited from earlier work
T2 sequence (P21397 1-527): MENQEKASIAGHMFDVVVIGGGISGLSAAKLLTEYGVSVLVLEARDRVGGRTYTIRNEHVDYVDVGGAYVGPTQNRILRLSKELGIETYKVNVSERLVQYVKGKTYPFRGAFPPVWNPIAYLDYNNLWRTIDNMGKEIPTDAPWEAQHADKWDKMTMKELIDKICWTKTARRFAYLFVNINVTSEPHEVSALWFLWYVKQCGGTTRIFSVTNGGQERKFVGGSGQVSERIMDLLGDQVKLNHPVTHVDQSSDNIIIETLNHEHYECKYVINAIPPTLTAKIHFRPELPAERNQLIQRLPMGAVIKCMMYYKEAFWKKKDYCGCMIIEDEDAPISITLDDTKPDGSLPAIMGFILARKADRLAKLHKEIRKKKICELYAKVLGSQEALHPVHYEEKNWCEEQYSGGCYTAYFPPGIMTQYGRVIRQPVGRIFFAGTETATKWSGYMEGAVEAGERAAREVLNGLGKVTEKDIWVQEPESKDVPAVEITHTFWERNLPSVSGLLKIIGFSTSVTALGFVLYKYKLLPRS

[6] = system: rats; details: forced-swimming tests using rats; cited from earlier work

amount of [3H] imipramine that specifically bound to the cell homogenate (control was 100) [3] | SMILES | self-polymerization reaction of γ-crystallin ([1]; Fenton reaction using FeCl3) | photopolymerization reaction of γ-crystallin [1] | average escape-latency (average of five trials) ([2]; Day 1 of administration, 20 mg/kg orally 60 minutes before training, open-space swimming treated mice, OS-Vehicle 52.6, noOS-Vehicle 44.1) [s] | time taken to reach the escape platform compared with the OS-Vehicle group ([2]; continuous administration up to Day 10, 20 mg/kg orally every day, FIG. 3) | uptake of serotonin in the brain [4] | activity of monoamine oxidase A [5] | immobility time [6]
69 | C[C@@H]1N[C@H](C(=O)O)Cc2c1[nH]c1ccccc21 [(1S,3S)-MTCA, (1S,3S)-1-methyl-1,2,3,4-tetrahydro-β-carboline-3-carboxylic acid] | prevents | prevents | 42.7 | decreased significantly | – | – | –
– | COc1ccc2[nH]c3c(c2c1)CCNC3 [pinoline, 6-methoxy-1,2,3,4-tetrahydro-β-carboline] | – | – | – | – | inhibits | inhibits | reduces
